Source: publication doi:10.1101/841569v1 (biorxiv, 2019)

Experiments:
Mtb-MenD [1] = target: T1, Mtb-MenD (Mycobacterium tuberculosis, UniProt P9WK11)
Mtb-MenD [2] = target: T1, Mtb-MenD; assay: biochemical
Mtb-MenD [3] = target: T1, Mtb-MenD; remark: listed apart in the source

T1 sequence (P9WK11 whole entry): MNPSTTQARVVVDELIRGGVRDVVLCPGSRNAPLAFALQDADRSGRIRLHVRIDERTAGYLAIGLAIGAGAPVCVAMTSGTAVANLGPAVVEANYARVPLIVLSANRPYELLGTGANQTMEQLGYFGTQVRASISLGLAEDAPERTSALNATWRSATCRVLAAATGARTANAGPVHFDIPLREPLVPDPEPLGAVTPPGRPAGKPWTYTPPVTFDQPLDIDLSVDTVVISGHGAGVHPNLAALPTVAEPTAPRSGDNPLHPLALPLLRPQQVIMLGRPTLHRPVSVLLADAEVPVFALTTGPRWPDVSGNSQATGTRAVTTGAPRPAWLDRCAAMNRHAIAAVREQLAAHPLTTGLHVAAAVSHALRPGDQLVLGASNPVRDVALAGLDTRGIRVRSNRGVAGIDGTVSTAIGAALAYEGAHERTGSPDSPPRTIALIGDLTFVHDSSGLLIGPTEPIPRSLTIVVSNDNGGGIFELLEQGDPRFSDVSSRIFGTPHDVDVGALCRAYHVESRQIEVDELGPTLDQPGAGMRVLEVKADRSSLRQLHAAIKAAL

| SMILES | % of non-inhibited activity at 20 μM (Mtb-MenD [1]) [%] | IC50 (Mtb-MenD [2]) [nM] | X-ray crystal structure (co-crystallised, 1 mM ThDP) (Mtb-MenD [3]) |
| --- | --- | --- | --- |
| O=C(O)c1cc(O)c2ccccc2c1O [DHNA] | 24 ± 1 | 53 | – |
| Cc1ncc(C[n+]2csc(CCOP(=O)(O)OP(=O)(O)O)c2C)c(N)n1 [ThDP] | – | – | acofactor (ThDP) bound DHNA complex |
